Literature values, collected in PMC5589077 (ACS chemical neuroscience, 2015).
No end group written: not given here.

Legend:
α4β2-nAChR = conditions: read-out: Ki at α4β2-nAChR; cited from earlier work
α6/α3β2β3-nAChR [1] = conditions: read-out: Ki at α6/α3β2β3-nAChR; cited from earlier work
α6/α3β2β3-nAChR [2] = conditions: calcium-flux, cited from earlier work
[3] = tested on: nonhuman primates with established LID; conditions: without reducing antiparkinsonian benefits; cited from earlier work
rats [4] = conditions: cited from earlier work
rats [5] = conditions: cited from earlier work; remark: listed apart in the source
rats [6] = conditions: rat, in vivo; cited from earlier work

For `O=C(C1CC1)N1CC2CC(C1)N2` [compound 8, 3-cyclopropylcarbonyl-3,6-dazabicyclo[3.1.1]heptane], the Ki (α4β2-nAChR) is given as 3 nM, the Ki (α6/α3β2β3-nAChR [1]) is given as 21 nM and the “Emax at α6/α3β2β3-nAChR” value (α6/α3β2β3-nAChR [2]) is given as 100%. The EC50 (α6/α3β2β3-nAChR [2]; read-out: EC50 at α6/α3β2β3-nAChR) was 80 nM, the “effect on L-dopa induced dyskinesia (LID)” value [3] was “ameliorated” and the “effect on abnormal involuntary movements (AIMs)” value (rats [4]) was “reduced abnormal involuntary movements”.

For `Cc1ccc[n+](CCCCCCCCCC[n+]2cccc(C)c2)c1` [compound 9, N,N′-decane-diyl-bis-3-picolinium], the “effect on nicotine SA” value (rats [5]) is listed as “reduce nicotine SA”.

For “α-Ctx MII (GCCSNPVCHLEHSNLC; ends and bridges not checked; cysteine pairing not given here; UniProt P56636 49-64, looked up)”, the “effect on established nicotine self-administration” value (rats [6]) is listed as “attenuated established nicotine self-administration”.
